Assays:
[1] = tested on: patients with end-stage cancer experiencing neuropathic pain; assay: Phase 2 placebo-controlled study of KRN5500, efficacy on neuropathic pain; format: in vivo, human; settings: for median decrease from baseline in pain intensity, clinic numeric rating scale (NRS) scores: placebo median change zero
Description: (§1) A Phase 2, multicenter, placebo-controlled, randomized, parallel group study was carried out to evaluate the safety, efficacy, and dose-response of KRN5500 in patients with end-stage cancer experiencing neuropathic pain. Nineteen (19) patients were enrolled in the study. Thirteen were randomized to receive KRN5500 and 6 were randomized to receive placebo. Due to a randomization error at an investigative site, one patient randomized to receive KRN5500 actually received placebo. Of the 12 patients who received KRN5500, 3 (25%) completed all dosing visits. Two (28.6%) of the patients who received placebo completed all dosing visits. No patients were lost to follow up and no patients died.
The treatment groups were similar in demographics, with the majority of patients being Caucasian (73.7%) and approximately 50/50 in distribution by gender. The median age of patients enrolled was 62 years, ranging from 41 to 84 years. The average body surface area (BSA) was 1.8 m^2 ranging from 0.95 to 2.27 m^2. The majority of the patient population had allodynia (84.2%). This and other baseline characteristics of neuropathic pain were consistent between the treatment groups.
(§2) The median duration of exposure to KRN5500 was 40 days compared to 29 days for placebo. On average, KRN5500 patients took 5.3 doses while placebo patients took 4.4 doses. The highest dose received was 2.2 mg/m^2. Seven (58.3%) of KRN5500 patients were exposed to at least one dose at this level, while 4 (57.1%) of Placebo patients were exposed to at least one dose at this level.
Pain intensity, based on clinic numeric rating scale (NRS) scores, was analyzed for both the Intent-to-treat (ITT) and modified efficacy (ME) populations. […] Since more than 80% of patients had allodynia as a baseline characteristic, results from the analysis of the subset of patients with allodynia present at baseline was consistent with the overall analysis. Too few patients presented without allodynia at baseline to adequately draw conclusions in this subset. […] Three (25%) of the KRN5500 treated patients achieved 33% or greater pain decrease and none of the placebo patients achieved this level.

[2] = tested on: patients with end-stage cancer experiencing neuropathic pain; assay: Phase 2 placebo-controlled study of KRN5500, safety; format: in vivo, human
Description: as §1, §2
All patients treated with KRN5500 (100%) had at least one treatment emergent adverse event, compared to 86% (6 of 7 patients) in the Placebo treated group. Events recorded by the KRN5500 patients tended to be more severe (84% moderate or severe in KRN5500 vs. 71% in Placebo). Events were typically gastrointestinal disorders such as nausea or vomiting and were more frequently considered to be related to treatment in the KRN5500 group than in the Placebo group (92% vs. 14%). Three patients (25%) in the KRN5500 group and 1 (14%) patient in the Placebo group experienced serious adverse events (AEs). […] Two patients treated with KRN5500 withdrew from the study due to nausea and vomiting which were thought to be related to study drug. One patient treated with KRN5500 withdrew due to convulsions not thought to be related to study drug. One patient treated with Placebo withdrew from the study due to a stroke not related to study drug.

[3] = tested on: rat models of neuropathic pain; settings: Abdi et al. 2000; Kobierski et al. 2003; cited from earlier work
[4] = brief pain inventory, no change in placebo
[5] = neuropathic pain questionnaire, versus placebo
[6] = of 12 patients who received KRN5500

CCCCCCCCC/C=C/C=C/C(=O)NCC(=O)N[C@@H]1[C@@H](O)[C@@H](O)[C@@H](Nc2ncnc3[nH]cnc23)O[C@H]1[C@@H](O)CO [KRN5500, 6-[4-deoxy-4-[(2E,4E)-tetradecadienoylglycyl}amino-L-glycero-β-L-mannoheptopyranosyl]amino-9H-purine]
aggregated physical and mental SF-12 scores ([1]; 1 week post-dose follow up): basically unchanged from baseline | dose response at last dose received (Endpoint) ([1]; ITT or ME population analysis): no trend for dose response | median decrease from baseline in pain intensity, clinic numeric rating scale (NRS) scores ([1]; Intent-to-treat (ITT) population): 22% | significance of decrease in pain intensity (clinic NRS) ([1]; Wilcoxon Rank Sum test of the medians, ME analysis, p=0.03): statistically significant decrease | dynamic and cold allodynia assessment ([1]; affected and unaffected areas, versus placebo): larger decrease in pain associated with both touch and cold | BPI: aggregate measure of pain's interference in the last 24 hours [1, 4]: decreases from baseline | BPI: patient perception of pain at its least in the past 24 hours [1, 4]: decreases from baseline | patients with a 20% or greater reduction in pain intensity ([1]; diary endpoint, 5 of KRN5500 treated patients, placebo 1 (14%)): 42% | median decrease from baseline in pain intensity, clinic numeric rating scale (NRS) scores ([1]; modified efficacy (ME) population): 23.6% | NPQ individual questions: burning pain, electric pain and freezing pain [1, 5]: decreases from baseline in favor of KRN5500 | NPQ questions: sensitivity to touch, shooting pain, numbness, tingling, or squeezing pain [1, 5]: no different between treatment groups | NPQ: increased pain due to touch or to weather changes [1, 5]: no treatment differences | best pain intensity response (largest decrease in pain) recorded in clinic over all doses, median decrease ([1]; placebo showed no decrease): 29.3% | median decrease in pain intensity based on diary data ([1]; placebo showed no decrease): 16.4% | SPQ: brush/touch induced pain scores ([1]; supplemental pain questionnaire): greater decrease in pain scores than the Placebo treated patients | SPQ: cold induced pain ([1]; supplemental pain questionnaire, at endpoint, both groups decreased): no treatment differences | patients achieving 33% or greater pain decrease ([1]; three KRN5500 treated patients, none of the placebo patients): 25% | Karnofsky Performance Status (KPS) ([1]; throughout the study, baseline median 75): did not change throughout the study | incidence of nausea and vomiting ([2]; generally considered related to study drug): High incidences of nausea and vomiting | deaths ([2]; in vivo): No deaths were observed | relation of serious AEs to study drug ([2]; in vivo): None were considered to be related to study drug | patients withdrawn due to convulsions not thought to be related to study drug [2, 6]: One | patients withdrawn due to nausea and vomiting thought to be related to study drug [2, 6]: Two | adverse events moderate or severe ([2]; placebo 71%): 84% | patients with at least one treatment emergent adverse event ([2]; placebo 86% (6 of 7 patients)): 100% | patients experiencing serious adverse events (AEs) ([2]; three patients, placebo 1 (14%)): 25% | clinically significant laboratory abnormalities, changes in vital signs, physical examinations, or ECGs ([2]; throughout the study): not observed | adverse events considered to be related to treatment ([2]; typically gastrointestinal disorders such as nausea or vomiting, placebo 14%): 92% | efficacy in rat models of neuropathic pain [3]: effective
